Data set [1] is described as follows: Solubility of compound (11) in various solvents. Format: physicochemical. An excerpt: (§1) To select a solvent for dissolving compound (11) in preparing an ointment containing compound (11), the solubility of compound (11) in various solvents was studied. […] Such a case may result in precipitation of compound (11). Thus, a solvent that has a high solubility of compound (11) but that has […] miscibility (compatibility) with petrolatum or paraffin is relatively preferable for use.

A short description of data set [2]: Miscibility of compound (11) solvent solution with petrolatum. Format: physicochemical.
From the text: as §1

Turning to `CCOc1ccccc1C(=O)NCc1coc(-c2ccc(OC(F)F)c(OC(C)C)c2)n1` [Compound (11)], in data set [1] (in triacetin and propylene carbonate), the “solubility of compound (11), in words” value is recorded as “relatively high”. Besides, the “Solubility (W/W %)” value in data set [1] (solvent: Decyl oleate) was determined as 2.6 W/W %; in data set [1] (solvent: Diethyl sebacate) it was 42.6 W/W %; in data set [1] (solvent: Diisopropyl adipate) it was 40.3 W/W %; in data set [1] (solvent: Hexyldodecanol) it was 5.4 W/W %; in data set [1] (solvent: Isopropyl myristate), 6.0 W/W %; in data set [1] (solvent: Isostearic acid), 19.8 W/W %. The “Solubility (W/W %)” value in data set [1] (solvent: Isostearyl alcohol) worked out at 5.1 W/W %; in data set [1] (solvent: Liquid Paraffin) it was 0.1 W/W %; in data set [1] (solvent: Olive oil), 6.1 W/W %; in data set [1] (solvent: Propylene carbonate) it was 56.9 W/W %; in data set [1] (solvent: Triacetine) it was 32.5 W/W %. Besides, the “Miscibility of Compound (11) Solvent Solution with Petrolatum” value in data set [2] (solvent: Decyl oleate), in data set [2] (solvent: Diethyl sebacate), in data set [2] (solvent: Diisopropyl adipate), in data set [2] (solvent: Hexyldodecanol), in data set [2] (solvent: Isopropyl myristate) and in data set [2] (solvent: Isostearic acid) was “Miscible” throughout. Moreover, the “Miscibility of Compound (11) Solvent Solution with Petrolatum” value is listed as “Miscible” in data set [2] (solvent: Isostearyl alcohol); “Miscible” in data set [2] (solvent: Liquid Paraffin); “Miscible” in data set [2] (solvent: Olive oil); “Immiscible” in data set [2] (solvent: Propylene carbonate); “Immiscible” in data set [2] (solvent: Triacetine).

The values are drawn from patent US10588893B2, “Ointment containing an oxazole compound” (OTSUKA PHARMACEUTICAL CO., LTD., priority 2015, dated 2020).
